From US20110230477A1, “COMPOUNDS, PHARMACEUTICAL COMPOSITION AND METHODS FOR USE IN TREATING METABOLIC DISORDERS” (Euroscreen S.A., priority 2008, published 2011)

These compounds were tested against T1, human GPR43 receptor (hGPR43) (Homo sapiens, UniProt O15552) (assay: GTPγS binding assay (SPA method)). Settings: membranes expressing hGPR43; assay performed in the presence of SCFA; read-out: EC50 (nM) in GTPγ35S assay.
T1 construct: expressed in transfected cells
T1 sequence (O15552 1-330): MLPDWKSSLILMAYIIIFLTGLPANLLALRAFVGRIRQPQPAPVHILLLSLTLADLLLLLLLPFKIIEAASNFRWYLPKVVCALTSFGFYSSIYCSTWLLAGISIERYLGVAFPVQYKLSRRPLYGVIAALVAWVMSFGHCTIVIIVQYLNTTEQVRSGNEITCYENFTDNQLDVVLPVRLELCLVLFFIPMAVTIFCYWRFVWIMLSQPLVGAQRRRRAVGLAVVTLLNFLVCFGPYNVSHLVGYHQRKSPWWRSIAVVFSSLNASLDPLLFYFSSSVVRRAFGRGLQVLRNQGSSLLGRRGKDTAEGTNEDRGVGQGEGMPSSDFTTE
Type: biochemical
Source text: The following assay can be used for determination of GPR43 activation. When a GPCR is in its active state, either as a result of ligand binding or constitutive activation, the receptor couples to a G protein and stimulates the release of GDP and subsequent binding of GTP to the G protein. The alpha subunit of the G protein-receptor complex acts as a GTPase and slowly hydrolyses the GTP to GDP, at which point the receptor normally is deactivated. Activated receptors continue to exchange GDP for GTP. […] The assay uses the ability of GPCR to stimulate [^35S]GTPγS binding to membranes expressing the relevant receptors. The assay can, therefore, be used in the direct identification method to screen candidate compounds to endogenous or not endogenous GPCR.
Membrane extracts were prepared from cells expressing the human GPR43 receptor (hGPR43) as follows: the medium was aspirated and the cells were scraped from the plates in Ca^++ and Mg^++-free Phosphate-buffered saline (PBS). The cells were then centrifuged for 3 min at 1500 g and the pellets were resuspended in buffer A (15 mM Tris-HCl pH 7.5, 2 mM MgCl2, 0.3 mM EDTA, 1 mM EGTA) and homogenized in a glass homogenizer. […] Protein content was assayed by the Folin method.
The assay was performed in the presence of SCFA, and was used to determine the activity of the compounds of the invention.
The [^35S]GTPγS assay was incubated in 20 mM HEPES pH7.4, 100 mM NaCl, 10 μg/ml saponin, 30 mM of MgCl2, 10 μM of GDP, 5 μg membrane-expressing hGPR43, 250 μg of wheatgerm agglutinin beads (Amersham, ref: RPNQ001), a range concentration of compounds (from 30 μM to 1 nM) in a final volume of 100 μl for 30 min at room temperature. The SCFA propionate was used at 1 mM final concentration as positive control. The plates were then centrifuged for 10 minutes at 2000 rpm, incubated for 2 hours at room temperature and counted for 1 min in a scintillation counter (TopCount, PerkinElmer).

Compound	EC50 [nM]
COC(=O)CN(C(=O)[C@@H](CC(=O)O)Cc1ccccc1)c1nc(-c2ccccc2Cl)cs1 [Compound 23, (R)-3-benzyl-4-((4-(2-chlorophenyl)thiazol-2-yl)(2-methoxy-2-oxoethyl)amino)-4-oxobutanoic acid]	327
CN(C(=O)[C@@H](CC(=O)O)Cc1ccccc1)c1nc(-c2ccccc2-c2cnc3c(c2)CCC(=O)N3C)cs1 [Compound 216, (R)-3-benzyl-4-(methyl(4-(2-(8-methyl-7-oxo-5,6,7,8-tetrahydro-1,8-naphthyridin-3-yl)phenyl)thiazol-2-yl)amino)-4-oxobutanoic acid]	341
O=C(O)C[C@@H](C(=O)Nc1nc(-c2ccccc2Cl)cs1)c1ccccc1 [Compound 92, (R)-4-(4-(2-chlorophenyl)thiazol-2-ylamino)-4-oxo-3-phenylbutanoic]	249
CN(C(=O)[C@@H](CC(=O)O)CC1CCCCC1)c1nc(-c2ccccc2Cl)cs1 [Compound 89, (R)-4-((4-(2-chlorophenyl)thiazol-2-yl)(methyl)amino)-3-(cyclohexylmethyl)-4-oxobutanoic acid]	37
CN(C(=O)[C@@H](CC(=O)O)Cc1ccccc1)c1nc(-c2ccccc2-c2ccc(C#N)cc2)cs1 [Compound 206, (R)-3-benzyl-4-((4-(4′-cyano-[1,1′-biphenyl]-2-yl)thiazol-2-yl)(methyl)amino)-4-oxobutanoic acid]	2320
CN(C(=O)[C@@H](CC(=O)O)Cc1ccccc1)c1nc(-c2ccccc2Cl)c(F)s1 [Compound 60, (R)-3-benzyl-4-((4-(2-chlorophenyl)-5-fluorothiazol-2-yl)(methyl)amino)-4-oxobutanoic acid]	95
O=C(O)C[C@@H](CC1CCCCC1)C(=O)Nc1nc(-c2ccccc2Cl)cs1 [Compound 18, (R)-4-(4-(2-chlorophenyl)thiazol-2-ylamino)-3-(cyclohexylmethyl)-4-oxobutanoic acid]	104
C[C@@H](c1ccccc1)[C@H](CC(=O)O)C(=O)N(C)c1nc(-c2ccccc2Cl)cs1 [Compound 106, (3S ,4R)-3-((4-(2-chlorophenyl)thiazol-2-yl)(methyl)carbamoyl)-4-phenylpentanoic acid]	216
C[C@H](c1ccccc1)[C@@H](CC(=O)O)C(=O)N(C)c1nc(-c2ccccc2Cl)cs1 [Compound 195, (3R,4S)-3-((4-(2-chlorophenyl)thiazol-2-yl)(methyl)carbamoyl)-4-phenylpentanoic acid]	2170
CN(C(=O)[C@@H](CC(=O)O)Cc1ccccc1)c1nc(-c2ccccc2-c2ccoc2)cs1 [Compound 135, (R)-3-benzyl-4-((4-(2-(furan-3-yl)phenyl)thiazol-2-yl)(methyl)amino)-4-oxobutanoic acid]	796
CN(C(=O)[C@@H](CC(=O)O)Cc1ccccc1)c1nc(-c2ccccc2-c2ccc(N3CCOCC3)cc2)cs1 [Compound 132, (R)-4-(2′-(2-(2-benzyl-3-carboxy-N-methylpropanamido)thiazol-4-yl)-[1,1′-biphenyl]-4-yl)morpholin-4-ium 2,2,2-trifluoroacetate]	276
CN(C)c1ccc(-c2ccccc2-c2csc(N(C)C(=O)[C@@H](CC(=O)O)Cc3ccccc3)n2)cn1 [Compound 115, (R)-3-benzyl-4-((4-(2-(6-(dimethylamino)pyridin-3-yl)phenyl)thiazol-2-yl)(methyl)amino)-4-oxobutanoic acid]	72
O=C(O)C[C@@H](CC1CCCC1)C(=O)N(c1nc(-c2cc(Cl)ccc2Cl)cs1)C1CC1 [Compound 166, (R)-3-(cyclopentylmethyl)-4-(cyclopropyl(4-(2,5-dichlorophenyl)thiazol-2-yl)amino)-4-oxobutanoic acid]	13
CN(C(=O)C(CC(=O)O)CC1CCCCC1)c1nc(-c2ccccc2Cl)cs1 (stereo not drawn) [Compound 103, 4-((4-(2-chlorophenyl)thiazol-2-yl)(methyl)amino)-3-(cyclohexylmethyl)-4-oxobutanoic acid]	137
O=C(O)C[C@@H](Cc1ccccc1)C(=O)Nc1nc(-c2ccc(Cl)cc2Cl)cs1 [Compound 3, (R)-3-benzyl-4-(4-(2,4-dichlorophenyl)thiazol-2-ylamino)-4-oxobutanoic acid]	653
CN(C(=O)C(CC(=O)O)CC1CC1)c1nc(-c2ccccc2Cl)cs1 (stereo not drawn) [Compound 113, 4-((4-(2-chlorophenyl)thiazol-2-yl)(methyl)amino)-3-(cyclopropylmethyl)-4-oxobutanoic acid]	226
CC(C)C[C@H](CC(=O)O)C(=O)N(C)c1nc(-c2ccccc2Cl)cs1 [Compound 90, (R)-3-((4-(2-chlorophenyl)thiazol-2-yl)(methyl)carbamoyl)-5-methylhexanoic acid]	88
CN(C(=O)[C@@H](CC(=O)O)Cc1ccccc1)c1nc(-c2ccccc2Cl)c(Cl)s1 [Compound 21, (R)-3-benzyl-4-((5-chloro-4-(2-chlorophenyl)thiazol-2-yl)(methyl)amino)-4-oxobutanoic acid]	260
CN(C(=O)[C@@H](CC(=O)O)Cc1ccccc1)c1nc(-c2ccccc2-c2ccccc2)cs1 [Compound 111, (R)-4-((4-([1,1′-biphenyl]-2-yl)thiazol-2-yl)(methyl)amino)-3-benzyl-4-oxobutanoic acid]	393
O=C(O)C[C@@H](Cc1ccc(F)cc1)C(=O)Nc1nc(-c2ccccc2Cl)cs1 [Compound 17, (R)-4-(4-(2-chlorophenyl)thiazol-2-ylamino)-3-(4-fluorobenzyl)-4-oxobutanoic acid]	643
COc1ccc(CC(CC(=O)O)C(=O)N(C)c2nc(-c3ccccc3Cl)cs2)cc1 (stereo not drawn) [Compound 99, 4-((4-(2-chlorophenyl)thiazol-2-yl)(methyl)amino)-3-(4-methoxybenzyl)-4-oxobutanoic acid]	567
CN(C(=O)[C@@H](CC(=O)O)Cc1ccccc1)c1nc(-c2ccccc2Cl)ns1 [Compound 83, (R)-3-benzyl-4-((3-(2-chlorophenyl)-1,2,4-thiadiazol-5-yl)(methyl)amino)-4-oxobutanoic acid]	98
O=C(O)C[C@@H](Cc1ccccc1)C(=O)Nc1nc(-c2ccccc2F)cs1 [Compound 4, (R)-3-benzyl-4-(4-(2-fluorophenyl)thiazol-2-ylamino)-4-oxobutanoic acid]	759
CN(C(=O)[C@@H](CC(=O)O)Cc1ccccc1)c1nc(-c2ccccc2C2CC2)cs1 [Compound 144, (R)-3-benzyl-4-((4-(2-cyclopropylphenyl)thiazol-2-yl)(methyl)amino)-4-oxobutanoic acid]	897
Cc1ccc(-c2csc(NC(=O)[C@@H](CC(=O)O)Cc3ccccc3)n2)o1 [Compound 202, (R)-3-benzyl-4-((4-(5-methylfuran-2-yl)thiazol-2-yl)amino)-4-oxobutanoic acid]	1510
O=C(O)C[C@@H](Cc1ccccc1)C(=O)Nc1cnc(-c2ccccc2Cl)cn1 [Compound 197, (R)-3-benzyl-4-((5-(2-chlorophenyl)pyrazin-2-yl)amino)-4-oxobutanoic acid]	1910
O=C(Nc1nc(-c2ccccc2Cl)cs1)[C@H]1CC=CC[C@H]1C(=O)O (relative stereo) [Compound 98, cis-6-(4-(2-chlorophenyl)thiazol-2-ylcarbamoyl)cyclohex-3-enecarboxylic acid]	113
